Results taken from the NIST ThermoML archive (doi:10.1021/je8003035).

Tests used:
[1] = molar heat capacity at constant pressure; wn = mass fraction of the nth substance listed; conditions: 1800 kPa, Liquid, Small sample (50 mg) DSC
[2] = wn = mass fraction of the nth substance listed; conditions: 1800 kPa, Liquid, Falling or rolling sphere viscometry
[3] = xn = mol fraction of the nth substance listed; conditions: 1800 kPa, Liquid, Vibrating tube method

O=[N+]([O-])[O-].[Li+] [lithium nitrate] + N
Conditions | mass density [kg/m3] | molar heat capacity at constant pressure [J/K/mol] | viscosity [mPa·s]
[1], 312.65 K, w2 = 0.5 | – | 85.88 | –
[1], 312.67 K, w2 = 0.3501 | – | 84.48 | –
[1], 312.67 K, w2 = 0.4003 | – | 84.65 | –
[1], 312.67 K, w2 = 0.4499 | – | 85.21 | –
[1], 312.67 K, w2 = 0.5497 | – | 84.75 | –
[1], 322.56 K, w2 = 0.5 | – | 86.67 | –
[1], 322.57 K, w2 = 0.3501 | – | 85.61 | –
[1], 322.58 K, w2 = 0.4003 | – | 85.8 | –
[1], 322.58 K, w2 = 0.4499 | – | 86.2 | –
[1], 322.58 K, w2 = 0.5497 | – | 85.55 | –
[1], 332.46 K, w2 = 0.5 | – | 87.54 | –
[1], 332.48 K, w2 = 0.3501 | – | 86.65 | –
[1], 332.48 K, w2 = 0.4499 | – | 87.22 | –
[1], 332.48 K, w2 = 0.5497 | – | 86.09 | –
[1], 332.49 K, w2 = 0.4003 | – | 86.7 | –
[1], 342.37 K, w2 = 0.5 | – | 88.33 | –
[1], 342.38 K, w2 = 0.3501 | – | 87.52 | –
[1], 342.38 K, w2 = 0.5497 | – | 86.97 | –
[1], 342.39 K, w2 = 0.4003 | – | 87.51 | –
[1], 342.39 K, w2 = 0.4499 | – | 88.09 | –
[1], 352.29 K, w2 = 0.3501 | – | 88.22 | –
[1], 352.29 K, w2 = 0.4003 | – | 88.07 | –
[1], 352.31 K, w2 = 0.4499 | – | 88.59 | –
[2], 293.2 K, w2 = 0.4 | – | – | 22.7
[2], 293.2 K, w2 = 0.4997 | – | – | 7.1
[2], 298.2 K, w2 = 0.4 | – | – | 18.7
[2], 298.2 K, w2 = 0.4997 | – | – | 6.1
[2], 303.2 K, w2 = 0.4 | – | – | 15.5
[2], 303.2 K, w2 = 0.4997 | – | – | 5.3
[2], 308.2 K, w2 = 0.4 | – | – | 13
[2], 308.2 K, w2 = 0.4997 | – | – | 4.7
[2], 313.2 K, w2 = 0.4 | – | – | 11
[2], 313.2 K, w2 = 0.4997 | – | – | 4.1
[2], 318.2 K, w2 = 0.4 | – | – | 9.3
[2], 318.2 K, w2 = 0.4997 | – | – | 3.6
[2], 323.2 K, w2 = 0.3 | – | – | 18.6
[2], 323.2 K, w2 = 0.4 | – | – | 8
[2], 323.2 K, w2 = 0.4997 | – | – | 3.3
[2], 328.1 K, w2 = 0.4997 | – | – | 2.9
[2], 328.2 K, w2 = 0.3 | – | – | 15.9
[2], 328.2 K, w2 = 0.4 | – | – | 6.9
[2], 333.1 K, w2 = 0.4997 | – | – | 2.6
[2], 333.2 K, w2 = 0.3 | – | – | 13.8
[2], 333.2 K, w2 = 0.4 | – | – | 6.1
[2], 338 K, w2 = 0.4997 | – | – | 2.4
[2], 338.1 K, w2 = 0.3 | – | – | 11.9
[2], 338.1 K, w2 = 0.4 | – | – | 5.4
[2], 343 K, w2 = 0.4997 | – | – | 2.2
[2], 343.1 K, w2 = 0.3 | – | – | 10.9
[2], 343.1 K, w2 = 0.4 | – | – | 4.8
[2], 348.1 K, w2 = 0.3 | – | – | 9
[2], 348.2 K, w2 = 0.4 | – | – | 4.3
[2], 353.1 K, w2 = 0.4 | – | – | 3.8
[2], 353.2 K, w2 = 0.3 | – | – | 7.9
[3], 293.15 K, x2 = 0.3501 | 1188.8 | – | –
[3], 293.15 K, x2 = 0.3988 | 1134.2 | – | –
[3], 293.15 K, x2 = 0.4499 | 1078.1 | – | –
[3], 293.15 K, x2 = 0.5 | 1030 | – | –
[3], 293.15 K, x2 = 0.55 | 983.8 | – | –
[3], 293.15 K, x2 = 0.5999 | 939 | – | –
[3], 293.15 K, x2 = 0.6505 | 896.8 | – | –
[3], 303.15 K, x2 = 0.3501 | 1181.2 | – | –
[3], 303.15 K, x2 = 0.3988 | 1126.6 | – | –
[3], 303.15 K, x2 = 0.4499 | 1070.3 | – | –
[3], 303.15 K, x2 = 0.5 | 1022.1 | – | –
[3], 303.15 K, x2 = 0.55 | 975.4 | – | –
[3], 303.15 K, x2 = 0.5999 | 929.8 | – | –
[3], 303.15 K, x2 = 0.6505 | 886.9 | – | –
[3], 313.15 K, x2 = 0.3501 | 1173.8 | – | –
[3], 313.15 K, x2 = 0.3988 | 1119 | – | –
[3], 313.15 K, x2 = 0.4499 | 1062.6 | – | –
[3], 313.15 K, x2 = 0.5 | 1014.1 | – | –
[3], 313.15 K, x2 = 0.55 | 966.8 | – | –
[3], 313.15 K, x2 = 0.5999 | 920.6 | – | –
[3], 313.15 K, x2 = 0.6505 | 876.7 | – | –
[3], 323.15 K, x2 = 0.3501 | 1166.6 | – | –
[3], 323.15 K, x2 = 0.3988 | 1111.5 | – | –
[3], 323.15 K, x2 = 0.4499 | 1055.1 | – | –
[3], 323.15 K, x2 = 0.5 | 1006.1 | – | –
[3], 323.15 K, x2 = 0.55 | 958.1 | – | –
[3], 323.15 K, x2 = 0.5999 | 911.2 | – | –
[3], 323.15 K, x2 = 0.6505 | 866.6 | – | –
[3], 333.15 K, x2 = 0.3501 | 1159.7 | – | –
[3], 333.15 K, x2 = 0.3988 | 1104.1 | – | –
[3], 333.15 K, x2 = 0.4499 | 1047.5 | – | –
[3], 333.15 K, x2 = 0.5 | 998 | – | –
[3], 333.15 K, x2 = 0.55 | 949.4 | – | –
[3], 333.15 K, x2 = 0.5999 | 901.6 | – | –
[3], 343.15 K, x2 = 0.3501 | 1153.1 | – | –
[3], 343.15 K, x2 = 0.3988 | 1096.9 | – | –
[3], 343.15 K, x2 = 0.4499 | 1040 | – | –
[3], 343.15 K, x2 = 0.5 | 990.1 | – | –
[3], 343.15 K, x2 = 0.55 | 940.4 | – | –
[3], 353.15 K, x2 = 0.3501 | 1146.9 | – | –
[3], 353.15 K, x2 = 0.3988 | 1090.2 | – | –
[3], 353.15 K, x2 = 0.4499 | 1032.8 | – | –
[3], 353.15 K, x2 = 0.5 | 982.1 | – | –
